Data published in PubChem BioAssay AID1918938 (Molecular Pharmacology Branch, DTP, NCI, 2023).

Test system: 556581-035-R-J1-PDC complex spheroid viability
Assay: Anticancer human tumor 556581-035-R-J1-PDC patient-derived ovarian carcinoma cell line growth inhibition
Details: for IC50: curve of first compound; for viability, T/C: stronger effect = lower value
Method in brief: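 Complex spheroids of tumor cells with HUVEC and human MSCs, exposed to iadademstat combined with other agents. Each agent tested in half-log steps from near clinical Cmax (else 10 microM top), DMSO ≤0.25%.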

[1] = second compound 0.1 µM, first compound 0.0316 µM
[2] = second compound 0.1 µM, first compound 0.1 µM
[3] = second compound 0.1 µM, first compound 0.316 µM
[4] = second compound 0.1 µM, first compound 1 µM
[5] = second compound 0.316 µM, first compound 0.0316 µM
[6] = second compound 0.316 µM, first compound 0.1 µM
[7] = second compound 0.316 µM, first compound 0.316 µM
[8] = second compound 0.316 µM, first compound 1 µM
[9] = second compound 1 µM, first compound 0.0316 µM
[10] = second compound 1 µM, first compound 0.1 µM
[11] = second compound 1 µM, first compound 0.316 µM
[12] = second compound 1 µM, first compound 1 µM
[13] = second compound 3.16 µM, first compound 0.0316 µM
[14] = second compound 3.16 µM, first compound 0.1 µM
[15] = second compound 3.16 µM, first compound 0.316 µM
[16] = second compound 3.16 µM, first compound 1 µM
[17] = second compound 10 µM, first compound 0.0316 µM
[18] = second compound 10 µM, first compound 0.1 µM
[19] = second compound 10 µM, first compound 0.316 µM
[20] = second compound 10 µM, first compound 1 µM
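Further: spheroids exposed to agents for seven days.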
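Wherever viability, T/C is given: 100% = DMSO vehicle control wells.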

Row | SMILES | IC50 (second compound 0.1 µM) [µM] | IC50 (second compound 0.316 µM) [µM] | IC50 (second compound 1 µM) [µM] | IC50 (second compound 3.16 µM) [µM] | IC50 (second compound 10 µM) [µM] | viability, T/C [1] [%] | viability, T/C [2] [%] | viability, T/C [3] [%] | viability, T/C [4] [%] | viability, T/C [5] [%] | viability, T/C [6] [%] | viability, T/C [7] [%] | viability, T/C [8] [%] | viability, T/C [9] [%] | viability, T/C [10] [%] | viability, T/C [11] [%] | viability, T/C [12] [%] | viability, T/C [13] [%] | viability, T/C [14] [%] | viability, T/C [15] [%] | also measured
1 | CC1(C)CCC(CN2CCN(c3ccc(C(=O)NS(=O)(=O)c4ccc(NCC5CCOCC5)c([N+](=O)[O-])c4)c(Oc4cnc5[nH]ccc5c4)c3)CC2)=C(c2ccc(Cl)cc2)C1 + NC1CC1c1ccc(-c2cccc(O)c2)cc1 | 4.1 | 3.94 | 4.04 | 3.82 | 3.23 | 89.8 | 85.4 | 73.2 | 76.5 | 83.2 | 82 | 73.2 | 75.4 | 82.6 | 87 | 81.9 | 65.3 | 83.5 | 90.3 | 72.2 | viability, T/C (second compound 0.1 µM, first compound 3.16 µM): 65.5%; viability, T/C (second compound 0.1 µM, first compound 10 µM): 3.69%; viability, T/C (second compound 0.316 µM, first compound 3.16 µM): 61.6%; viability, T/C (second compound 0.316 µM, first compound 10 µM): 4.26%; viability, T/C (second compound 1 µM, first compound 3.16 µM): 67.4%; viability, T/C (second compound 1 µM, first compound 10 µM): 5.26%; viability, T/C [16]: 73.9%; viability, T/C (second compound 3.16 µM, first compound 3.16 µM): 61.3%; viability, T/C (second compound 3.16 µM, first compound 10 µM): 4.73%; viability, T/C [17]: 85.4%; viability, T/C [18]: 81.7%; viability, T/C [19]: 75.6%; viability, T/C [20]: 65.4%; viability, T/C (second compound 10 µM, first compound 3.16 µM): 55.2%; viability, T/C (second compound 10 µM, first compound 10 µM): 3.86%
2 | COc1cc(Nc2ncc3c(n2)-c2ccc(Cl)cc2C(c2c(F)cccc2OC)=NC3)ccc1C(=O)O + NC1CC1c1ccc(-c2cccc(O)c2)cc1 | 0.0422 | 0.0275 | 0.0505 | 0.44 | > 1 | 53.3 | 44.6 | 45.7 | 37.3 | 51.2 | 43.1 | 37.4 | 37.8 | 59.7 | 42.9 | 46.4 | 37.9 | 60.4 | 49.7 | 56 | viability, T/C (second compound 0.1 µM, first compound 0.00316 µM): 57.3%; viability, T/C (second compound 0.1 µM, first compound 0.01 µM): 51.5%; viability, T/C (second compound 0.316 µM, first compound 0.00316 µM): 57.6%; viability, T/C (second compound 0.316 µM, first compound 0.01 µM): 56.5%; viability, T/C (second compound 1 µM, first compound 0.00316 µM): 50.5%; viability, T/C (second compound 1 µM, first compound 0.01 µM): 49%; viability, T/C (second compound 3.16 µM, first compound 0.00316 µM): 58.3%; viability, T/C (second compound 3.16 µM, first compound 0.01 µM): 57.4%; viability, T/C [16]: 42.5%; viability, T/C (second compound 10 µM, first compound 0.00316 µM): 73.8%; viability, T/C (second compound 10 µM, first compound 0.01 µM): 60.5%; viability, T/C [17]: 59.7%; viability, T/C [18]: 55.5%; viability, T/C [19]: 52%; viability, T/C [20]: 50.2%
